# Structures can show the parent of a compound that is named as a salt.
# Legend:
# [1] = in water; cited from earlier work
# clinical = conditions: human, in vivo, po
# [2] = Dilution of PEG-400 or polysorbate-80 solution of sertraline base into 0.9% NaCl (Example 3); type: physicochemical
# Protocol: One ml of this test solution was added to 15 ml normal saline (0.9% NaCl, pH 4.2), and was stirred vigorously.
# [3] = Precipitation studies with sertraline base in 0.1N HCl and phosphate buffered saline pH 5.8 (Example 4)
# Protocol: Solution (a) is a simulated gastric fluid, and solution (b) is a simulated intestinal fluid.
# PEG400 is miscible with aqueous media, while Capmul®-MCM and safflower oil are not. One milliliter of the test solution was added to 10 mL of (a) 0.1N HCl solution and (b) phosphate buffered saline (PBS) pH 5.8 and was stirred vigorously.
# Mobile phase: per liter of mobile phase: 270 mL of tetrahydrofuran, 230 mL of methanol and 400 mL of buffer. The buffer consisted of 25 mM triethylamine phosphate. It was prepared by adding 1.7 mL of phosphoric acid and 3.5 mL of tirethylamine to 1 liter of water.
# [4] = Human crossover pharmacokinetics of 200 mg sertraline delivered to various portions of the gastrointestinal tract (Example 1); type: in vivo; conditions: Group A
# Protocol: Dosing was via (1) oral tablets, or (2) infusion of a solution through a nasoenteric tube into the stomach, duodenum, or ileocecal region of the small intestine, or (3) infusion into the transverse colon via anal intubation.
# The infusions were administered as a 2 mg/ml solution at a rate of 20 ml/min for 5 min.
# Analysis was carried out by capillary gas chromatography with electron capture detection. […] Tmax is the time at which Cmax is achieved.
# [5] = human, in vivo
# [6] = dosed as Zoloft tablets; cited from earlier work
# [7] = Chloride-induced gelling of sertraline salt solutions; type: physicochemical
# [8] = Equilibrium solubility of sertraline base and hydrochloride in selected vehicles (Table 4-4); type: physicochemical; conditions: vehicle Miglyol 810
# Description: Water-immiscible vehicles do have this capacity.
# physchem = conditions: simulated gastric fluid
compound,measurement,setting,value
vitamin E,Aqueous solubility,[1],practically insoluble in water
CN[C@H]1CC[C@@H](c2ccc(Cl)c(Cl)c2)c2ccccc21 [sertraline],Tmax,clinical,< 1.5 h
same,Precipitation upon addition to a NaCl solution,[2]; PEG400 solution of sertraline,a portion of the sertraline precipitates
same,Precipitation upon addition to a NaCl solution,[2]; Polysorbate-80 solution of sertraline,no precipitation occurs
same,Precipitation of sertraline,[3]; PEG 400 solution added into either 0.1 N HCl or phosphate buffered saline,precipitation of a large proportion of sertraline
same,Portion of sertraline remaining in solution,"[3]; vehicle Capmul-MCM, 0.1 N HCl or phosphate buffered saline",> 95 % of added amount
same,AUCO-LAST,[4]; Ileocecal Infusion of solution,727.1 ng·h/mL
same,AUCO-LAST,[4]; Oral Tablet (two 100 mg Zoloft tablets),1174.5 ng·h/mL
same,AUCO-LAST,[4]; Stomach Infusion of solution,923.1 ng·h/mL
same,Intrinsic absorption rate constant (ARC),[5],greater than 0.025 min^−1
same,Absolute oral bioavailability,[6],54%
"CN[C@H]1CC[C@@H](c2ccc(Cl)c(Cl)c2)c2ccccc21 [Lactate, sertraline lactate]",State of saturated solution at physiological chloride concentrations,[7],thick pasty solid which does not flow
sertraline acetate,State of saturated solution at physiological chloride concentrations,[7],thick pasty solid which does not flow
"CN[C@H]1CC[C@@H](c2ccc(Cl)c(Cl)c2)c2ccccc21 [Free base, sertraline free base]",Equilibrium solubility in Miglyol 810,[8],>50 mgA/ml
same,Observed Concentration after Dilution in Saline after 2 hr,"[2]; vehicle Polysorbate-80, 50 mgA/ml in vehicle, 1 ml into 15 ml 0.9% NaCl",3.1 mgA/ml
same,Concentration of sertraline in aqueous layer,"[3]; Capmul MCM 50 mgA/mL, 1 mL into 10 mL phosphate buffered saline pH 5.8, 120 minutes",0.16 mgA/mL
same,Concentration of sertraline in aqueous layer,"[3]; Safflower oil 50 mgA/mL, 1 mL into 10 mL 0.1 N HCl, 120 minutes",0.48 mgA/mL
same,Concentration of sertraline in aqueous layer,"[3]; Safflower oil 50 mgA/mL, 1 mL into 10 mL phosphate buffered saline pH 5.8, 120 minutes",0.19 mgA/mL
same,Precipitation of sertraline,[3]; solution in safflower oil added to phosphate buffered saline,little or no precipitation
"CN[C@H]1CC[C@@H](c2ccc(Cl)c(Cl)c2)c2ccccc21 [Hydrochloride, sertraline hydrochloride]",Equilibrium solubility in Miglyol 810,[8]; hydrochloride,greater than 0.1 mgA/ml
same,solubility,physchem,~3000 µg/mL

# Source: patent US20030133974A1 (priority 1997, published 2003)
